According to publication PMC6936217 (Science translational medicine, 2019):
Like-named read-outs stand apart in the source and are kept apart here.

Columns and labels:
EBNA1 = EBNA1 (Epstein-Barr virus, UniProt P03211); assay: ALPHA proximity DNA binding assay
15N-labeled EBNA1 = 15N-labeled EBNA1 (Epstein-Barr virus, UniProt P03211); assay: HSQC NMR with 15N-labeled EBNA1; format: binding; conditions: 50 μM ligand
[1] = read-out: IC50, inhibition of EBNA1 DNA binding, ALPHA proximity assay

EBNA1, sequence (P03211 459-607): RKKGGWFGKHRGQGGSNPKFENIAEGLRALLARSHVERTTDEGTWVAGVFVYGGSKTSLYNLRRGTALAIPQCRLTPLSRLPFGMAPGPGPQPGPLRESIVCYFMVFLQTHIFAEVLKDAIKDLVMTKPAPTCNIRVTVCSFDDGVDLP
15N-labeled EBNA1, sequence (P03211 459-607): as above

SMILES	IC50 (EBNA1) [µM]	IC50 (EBNA1; [1]) [µM]	binding to EBNA1 by chemical shift changes (15N-labeled EBNA1)
O=C(O)c1cncc(C#Cc2ccccc2)c1 [VK-0044, 5-phenylacetylenyl nicotinic acid]	110		
O=C(O)c1ccccc1-n1cccc1 [VK-0064, 2-pyrrolo-benzoic acid]		2	
O=C(O)c1cccc(C#Cc2ccccc2)c1-n1cccc1 [VK-0497, 2-pyrrolo-3-phenylacetylenyl benzoic acid]		0.89	direct binding
